Laboratory results as given in patent publication US20090182135A1, “Amino modifiers” (priority 2007, published 2009).
Where two headings read alike, the source gives them in different places.

Experiments:
[1] = pKR+ determination of trityl alcohols by UV spectrophotometry in aqueous sulphuric acid solutions (Deno acidity function HR); format: physicochemical; conditions: for pKR+ (477 nm): absorbance at 477 nm
Text: The physico-chemical properties of trityl cations have been thoroughly investigated. In 1955 Deno et al reported an empirical Acidity Function HR which allows the comparison of the stability of different trityl cations (N. C. Deno, J. J. Jaruzelski and A. Schriesheim, J. Am. Chem. Soc. 1955, 77, 3044). Using the acidity function and the methods described by Deno it is possible to evaluate the pKR+ parameter for trityl alcohol derivatives, which is a direct indication of the stability of the corresponding trityl cations.
Once the acidity function HR for a particular acidic solution is known, the pKR+ of a triarylcarbinol dissolved in that acidic solution can be calculated in a straightforward manner once the ratio [R^+]/[ROH] has been experimentally determined. Therefore, in order to determine pKR+ values in acidic solutions of known HR, the ratio [R^+]/[ROH] must be established or, what is the equivalent, the degree of ionization of the triarylcarbinol.
The [R^+]/[ROH] ratio can be determined by spectrophotometic means. In particular, for trityl derivatives, UV spectrophotometry is useful since trityl cations and their parent molecules show completely different absorption spectra in the UV region.
In general, the experimental procedure for determining pKR+ for a trityl alcohol is summarised as follows. A solution of the triaryl alcohol in question in acetic acid is prepared in a way that the final concentration of the solutions to be analysed by UV spectrometry are in the range of 10^−5 to 10^−7 molar. A constant amount of the acetic acid solution so prepared is then added to the solutions of sulphuric acid (for instance, using a micropipette) to carry out the UV spectrometry experiments. It is recommended that the values of E are measured at the λmax of the trityl cation.
Starting from the most concentrated sulphuric acid solutions, samples are prepared until it is observed that the absorbance of the samples starts to decay. In the range of concentrations prior to the decay of absorbance, the triaryl alcohol is dissolved in a sufficiently concentrated sulphuric to completely ionise it. Therefore, ε=εR. In the region of sulphuric acid concentrations in which the absorbance of the samples decays, a series of values for ε are collected.
Finally, a concentration of sulphuric acid is reached in which the absorbance at λmax is negligible (or the alcohol starts to precipitate). This indicates the end of the experiment and values for the [R^+]/[ROH] for a series of given HR are available.
The pKR+ can be determined using the equation
Using UV spectrometry, the λmax of the trityl cation was determined to be approximately 477 nm, as illustrated in FIG. 1. Absorbance values were recorded at this wavelength for different concentrations of sulphuric acid. […]

[2] = commercially available trityl protecting groups, values stated without experiment; cited from earlier work
[3] = Stability of the amino modifier reagent in acetonitrile; format: physicochemical; conditions: room temperature
Method: The sulfoxy derivative survives conditions of polynucleotide synthesis and can either be cleaved with standard deblock solution, or left intact for an HPLC purification. […] UV quantification for release of the new protecting group is possible. Extinction coefficients (L/(mol×cm) shown in the Scheme above were measured in 2% TFA/DCM.

With COc1ccc(C(O)(c2ccc(C)cc2)c2ccc(C)cc2)cc1 [MDMeTrOH, 4-methoxy-4′,4″-dimethyltrityl alcohol] the “pKR+ (477 nm)” value ([1]; H2SO4 20%) was −2.7, the “pKR+ (477 nm)” value ([1]; H2SO4 25%) was −2.6 and the “pKR+ (477 nm)” value ([1]; H2SO4 30%) was −2.5. For the same compound, the “pKR+” value ([1]; overall value for the trityl alcohol, UV at λmax of the trityl cation in sulphuric acid solutions) was −2.6.
In the case of 4,4′-dimethoxytrityl [DMTr], the “pKR+” value [2] is listed as −1.24.
For COc1ccc(C(NCCCCCCOP(OCCC#N)N(C(C)C)C(C)C)(c2ccc(OC)cc2)c2ccc([S+](C)[O-])cc2)cc1 (stereo not shown) [DMS(O)MTr amino modifier, 6-(4,4′-dimethoxy-4″-(methylsulfinyl)tritylamino)hexylolxy-(2-cyanoethoxy) diisopropylaminophosphine], the “stability of the reagent in solution” value [3] was “stable in acetonitrile at room temperature for at least two weeks”.
For monomethoxytrityl [MMTr], the “pKR+” value [2] is listed as −3.40.
